Measured values taken from patent US4670444A, “7-amino-1-cyclopropyl-4-oxo-1, 4-dihydro-quinoline-and naphthyridine-3-carboxylic acids and antibacterial agents containing these compounds” (Bayer Aktiengesellschaft, priority 1980, dated 1987).
Converted amounts (≈) assume the structure as drawn. Like-named read-outs stand apart in the source and are kept apart here.

Columns and labels:
Assay type in all cases: cell-based
E. coli Neum. = assay: Agar dilution test, DST medium; conditions: 1-2 × 10^3 germs/plate
Text: (§2) DST (dexhase sensitivity test) medium; 1-2 × 10^3 germs/plate

Klebsiella 8085 = assay: Agar dilution test, DST medium; conditions: 1-2 × 10^3 germs/plate
Text: as §2

[1] = test system: Staphylococcus aureus 133; assay: Agar dilution test, DST medium; conditions: 1-2 × 10^3 germs/plate
Text: as §2

Proteus 1017 = assay: Agar dilution test, DST medium; conditions: 1-2 × 10^3 germs/plate
Text: as §2

E. coli A 261 = assay: Agar dilution test, DST medium; conditions: 1-2 × 10^3 germs/plate
Text: as §2

Pseudomonas aeruginasa = assay: Agar dilution test, DST medium; conditions: 1-2 × 10^3 germs/plate
Text: as §2

Pseudomonas 7167 = assay: Agar dilution test, Denley multipoint inoculation method; conditions: read-out: Minimum inhibitory concentrations in an agar dilution test
Text: (§1) | ^x Denley multipoint inoculation method

Proteus 8228 = assay: as above; conditions: read-out: Minimum inhibitory concentrations in an agar dilution test
Text: as §1

Klebsiella 63 = assay: as above
Text: as §1

Escherichia coli T 7 = assay: as above; conditions: T7, read-out: Minimum inhibitory concentrations in an agar dilution test
Text: as §1

Escherichia coli 455/7 = assay: as above
Text: as §1

Escherichia coli 103400 = assay: as above
Text: as §1

Salmonella 683 = assay: as above; conditions: read-out: Minimum inhibitory concentrations in an agar dilution test
Text: as §1

[2] = Proteus 8228, Denley multipoint inoculation method
[3] = Klebsiella 63, Denley multipoint inoculation method, read-out: Minimum inhibitory concentrations in an agar dilution test
[4] = Escherichia coli 455/7, Denley multipoint inoculation method, read-out: Minimum inhibitory concentrations in an agar dilution test
[5] = Escherichia coli 103400, Denley multipoint inoculation method, read-out: Minimum inhibitory concentrations in an agar dilution test

| Compound | antibacterial action in agar dilution test (E. coli Neum.) | antibacterial action in agar dilution test (Klebsiella 8085) | antibacterial action in agar dilution test [1] | antibacterial action in agar dilution test (Proteus 1017) | antibacterial action in agar dilution test (E. coli A 261) | antibacterial action in agar dilution test (Pseudomonas aeruginasa) | MIC (Pseudomonas 7167) [µg/mL] | MIC (Proteus 8228; [2]) [µg/mL] | MIC (Klebsiella 63; [3]) [µg/mL] | MIC (Escherichia coli T 7) [µg/mL] | MIC (Escherichia coli 455/7; [4]) [µg/mL] | MIC (Escherichia coli 103400; [5]) [µg/mL] | MIC (Salmonella 683) [µg/mL] | MIC (Proteus 8228) [µg/mL] | MIC (Klebsiella 63; Klebsiella, 63, read-out: Minimum inhibitory concentrations in an agar dilution test) [µg/mL] | MIC (Escherichia coli 455/7; Escherichia coli, 455/7, read-out: Minimum inhibitory concentrations in an agar dilution test) [µg/mL] | MIC (Escherichia coli 103400; Escherichia coli, 103400, read-out: Minimum inhibitory concentrations in an agar dilution test) [µg/mL] |
| --- | --- | --- | --- | --- | --- | --- | --- | --- | --- | --- | --- | --- | --- | --- | --- | --- | --- |
| O=C(O)c1cn(C2CC2)c2cc(N3CCNCC3)ncc2c1=O | 1 | 1 | 8 | 0.5 | 1 | 4 | – | – | – | – | – | – | – | – | – | – | – |
| CCn1cc(C(=O)O)c(=O)c2cc(F)c(N3CCNCC3)cc21 | 0.25 | 0.25 | 1 | 0.06 | 0.125 | 1 | – | – | – | – | – | – | – | – | – | – | – |
| O=C(O)c1cn(C2CC2)c2cc(N3CCNCC3)c(F)cc2c1=O [1-cyclopropyl-6-fluoro-1,4-dihydro-4-oxo-7-piperazino-quinoline-3-carboxylic acid] | 0.06 | 0.06 | 0.25-0.5 | 0.03 | 0.06 | 0.5 | – | – | – | – | – | – | – | – | – | – | – |
| CN1CCN(c2cc3c(cn2)c(=O)c(C(=O)O)cn3C2CC2)CC1 [Example 1, 7-(4-Methylpiperazino)-1-cyclopropyl-4-oxo-1,4-dihydro-1,6-naphthyridine-3-carboxylic acid] | – | – | – | – | – | – | 8 (≈ 24.4 µM) | 2 (≈ 6.09 µM) | 1 (≈ 3.05 µM) | 0.25 (≈ 0.761 µM) | 128 (≈ 390 µM) | 0.25 (≈ 0.761 µM) | 0.5 (≈ 1.52 µM) | – | – | – | – |
| CCn1cc(C(=O)O)c(=O)c2ccc(C)nc21 [Nalidixic acid, 1-ethyl-7-methyl-1,8-naphthyrid-4-one-3-carboxylic acid] | – | – | – | – | – | – | 64 (≈ 276 µM) | – | – | 1 (≈ 4.31 µM) | – | – | 4 (≈ 17.2 µM) | 8 (≈ 34.4 µM) | 4 (≈ 17.2 µM) | 256 (≈ 1100 µM) | 2 (≈ 8.61 µM) |
| CCn1cc(C(=O)O)c(=O)c2cnc(N3CCNCC3)nc21 [Pipemidic acid, 2-piperazino-8-ethyl-5-oxo-5,8-dihydropyrido 2,3-d pyrimidine-6-carboxylicacid] | – | – | – | – | – | – | 16 (≈ 52.7 µM) | 4 (≈ 13.2 µM) | 2 (≈ 6.59 µM) | 2 (≈ 6.59 µM) | 128 (≈ 422 µM) | 1 (≈ 3.3 µM) | 2 (≈ 6.59 µM) | – | – | – | – |
